Reference: patent US20260224536A1, “ARYL HETEROCYCLIC KV1.3 INHIBITOR, PREPARATION METHOD THEREFOR, AND USE THEREOF” (SHANGHAI SHENSHI WISE TECHNOLOGY CO., LTD., priority 2022, published 2026)
pIC50: −log10 of the molar value.

The compounds below were run against Kv1.3 potassium channel (Homo sapiens, UniProt P22001) (assay: Whole-cell patch-clamp assay for inhibitory activity against Kv1.3 (peak current)). Details: HEK293 cells stably expressing Kv1.3, patch-clamp.
Type: cell-based
Source text: The voltage stimulation protocol for recording whole-cell Kv1.X potassium currents via patch-clamp was as follows. After formation of a whole-cell seal, the cell membrane voltage was clamped at −80 mV, and then stepped to +40 mV for 500 ms. […] The test data were acquired by EPC-10 amplifier (HEKA) and stored in the PatchMaster (HEKA) software. Recording electrodes were drawn from capillary glass tubes using a microelectrode puller. Under an inverted microscope, the recording electrode was brought into contact with the cell surface by manipulating a microelectrode manipulator. Negative-pressure suction was applied to form a GΩ seal. After formation of the […], a rapid capacitance compensation was given. The application of negative pressure was continued to rupture the cell membrane, forming a whole-cell recording mode. Then, a slow capacitance compensation was given, and the membrane capacitance and series resistance were recorded. No current leakage compensation was provided. Once the whole-cell recorded Kv1.X current stabilized, drug administration was started. Each drug concentration was allowed to act for 5 min (or until the current reached a steady state) before the next concentration was tested. Multiple concentrations were tested for each test compound. The cover glass plated with the cells was placed in a recording bath of the inverted microscope. The test compound and the compound-free extracellular fluid were allowed to sequentially flow through the recording bath from low concentrations to high concentrations using a gravity perfusion method, thus acting on the cells, and liquid exchange was performed using a vacuum pump during recording. For each cell, the current detected in the compound-free extracellular liquid was used as its own control group. The test was independently repeated three times using at least three cells per concentration. All electrophysiological experiments were performed at room temperature. […] First, the peak current after the action of each drug concentration and the peak current of the blank control were standardized and then the inhibition rate corresponding to each drug concentration was calculated Subsequently, the mean, standard deviation (SD), and standard error (SE) were calculated for the inhibition rate corresponding to each concentration. Using the above equation, the IC50 value for each compound was calculated, and the dose-dependent effect was subjected to non-linear fitting, where IC50 is the half maximal inhibitory concentration. The IC50 calculation and the curve fitting were performed using the GraphPad Prism software.

Chain of Kv1.3 potassium channel (P22001 whole entry): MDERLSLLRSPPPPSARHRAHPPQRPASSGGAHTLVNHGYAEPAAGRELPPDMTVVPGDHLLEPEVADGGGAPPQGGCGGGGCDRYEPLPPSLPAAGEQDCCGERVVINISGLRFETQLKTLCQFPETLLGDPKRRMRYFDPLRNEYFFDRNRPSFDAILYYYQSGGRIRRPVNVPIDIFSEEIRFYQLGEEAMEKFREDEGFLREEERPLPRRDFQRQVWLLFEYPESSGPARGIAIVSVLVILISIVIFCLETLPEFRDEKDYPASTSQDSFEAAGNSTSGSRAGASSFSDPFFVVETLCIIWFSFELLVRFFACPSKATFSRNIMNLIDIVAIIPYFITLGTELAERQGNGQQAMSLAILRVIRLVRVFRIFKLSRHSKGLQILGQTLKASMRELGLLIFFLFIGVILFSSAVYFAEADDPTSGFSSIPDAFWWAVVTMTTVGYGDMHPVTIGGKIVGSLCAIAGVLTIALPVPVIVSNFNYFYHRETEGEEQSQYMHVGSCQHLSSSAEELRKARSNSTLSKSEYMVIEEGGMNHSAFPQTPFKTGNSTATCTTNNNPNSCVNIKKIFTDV

Row | Compound | pIC50
1 | CC(=O)N1CC[C@@H](c2nnc3n2C[C@H](c2c(O)ccc(Cl)c2Cl)C3)C1 [Example 81, 1-((R)-3-((S)-6-(2,3-Dichloro-6-hydroxyphenyl)-6,7-dihydro-5H-pyrrolo[2,1-c][1,2,4]triazol-3-yl)pyrrolidin-1-yl)ethan-1-one] | 7.95
2 | CC(C)N1CCC(N2CC[C@@H](c3nnc4n3C[C@H](c3c(O)ccc(Cl)c3Cl)C4)C2)CC1 [Example 82, 3,4-Dichloro-2-((S)-3-((R)-1-(1-isopropylpiperidin-4-yl)pyrrolidin-3-yl)-6,7-dihydro-5H-pyrrolo[2,1-c][1,2,4]triazol-6-yl)phenol] | 8.30
3 | Oc1ccc(Cl)c(Cl)c1[C@@H]1Cc2nnc([C@@H]3CCN(C4CCOCC4)C3)n2C1 [Example 83, 3,4-Dichloro-2-((S)-3-((R)-1-(tetrahydro-2H-pyran-4-yl)pyrrolidin-3-yl)-6,7-dihydro-5H-pyrrolo[2,1-c][1,2,4]triazol-6-yl)phenol] | 8.40
4 | Cc1cc(-c2nnc3n2C[C@H](c2c(O)ccc(Cl)c2Cl)C3)ccn1 [Example 84, (S)-3,4-Dichloro-2-(3-(2-methylpyridin-4-yl)-6,7-dihydro-5H-pyrrolo[2,1-c][1,2,4]triazol-6-yl)phenol] | 8.09
5 | CC(F)(F)c1nnc2n1C[C@H](c1c(O)ccc(Cl)c1Cl)C2 [Example 85, (S)-3,4-Dichloro-2-(3-(1,1-difluoroethyl)-6,7-dihydro-5H-pyrrolo[2,1-c][1,2,4]triazol-6-yl)phenol] | 7.61
6 | Oc1ccc(Cl)c(Cl)c1[C@@H]1Cc2nnc(C(F)(F)F)n2C1 [Example 86, (S)-3,4-Dichloro-2-(3-(trifluoromethyl)-6,7-dihydro-5H-pyrrolo[2,1-c][1,2,4]triazol-6-yl)phenol] | 7.60
7 | Oc1ccc(Cl)c(Cl)c1[C@@H]1Cc2nnc(CC(F)(F)F)n2C1 [Example 87, (S)-3,4-Dichloro-2-(3-(2,2,2-trifluoroethyl)-6,7-dihydro-5H-pyrrolo[2,1-c][1,2,4]triazol-6-yl)phenol] | 7.68
8 | CC1(C)CC(c2nnc3n2CC(c2c(O)ccc(Cl)c2Cl)C3)CC(C)(C)N1 (stereo not drawn) [Example 88, 3,4-Dichloro-2-(3-(2,2,6,6-tetramethylpiperidin-4-yl)-6,7-dihydro-5H-pyrrolo[2,1-c][1,2,4]triazol-6-yl)phenol] | 7.23
9 | CC1(C)CC(c2nnc3n2CC(c2c(O)ccc(Cl)c2Cl)C3)CCN1 (stereo not drawn) [Example 89, 3,4-Dichloro-2-(3-(2,2-dimethylpiperidin-4-yl)-6,7-dihydro-5H-pyrrolo[2,1-c][1,2,4]triazol-6-yl)phenol] | 8.08
10 | Oc1ccc(Cl)c(Cl)c1[C@@H]1Cc2ncc(C3CCCC3)n2C1 [Example 90, (S)-3,4-Dichloro-2-(3-cyclopentyl-6,7-dihydro-5H-pyrrolo[1,2-a]imidazol-6-yl)phenol] | 8.15
11 | Oc1ccc(Cl)c(Cl)c1[C@H]1Cc2ncc(C3CCCC3)n2C1 [Example 91, (R)-3,4-dichloro-2-(3-cyclopentyl-6,7-dihydro-5H-pyrrolo[1,2-a]imidazol-6-yl)phenol] | 8.31
12 | CCc1cnc2n1C[C@H](c1c(O)ccc(Cl)c1Cl)C2 [Example 92, (S)-3,4-Dichloro-2-(3-ethyl-6,7-dihydro-5H-pyrrolo[1,2-a]imidazol-6-yl)phenol] | 8.26
13 | CCc1cnc2n1C[C@@H](c1c(O)ccc(Cl)c1Cl)C2 [Example 93, (R)-3,4-dichloro-2-(3-ethyl-6,7-dihydro-5H-pyrrolo[1,2-a]imidazol-6-yl)phenol] | 8.51
14 | CC(C)N1CCC(c2cnc3n2C[C@@H](c2c(O)ccc(Cl)c2Cl)C3)CC1 [Example 95, (R)-3,4-dichloro-2-(3-(1-isopropylpiperidin-4-yl)-6,7-dihydro-5H-pyrrolo[1,2-a]imidazol-6-yl)phenol] | 8.22
15 | COc1ccc(-c2cnc3n2CC(c2c(O)ccc(Cl)c2Cl)C3)cc1 (stereo not drawn) [Example 96, 3,4-Dichloro-2-(3-(4-methoxyphenyl)-6,7-dihydro-5H-pyrrolo[1,2-a]imidazol-6-yl)phenol] | 7.29
16 | Cn1cc(-c2cnc3n2CC(c2c(O)ccc(Cl)c2Cl)C3)cn1 (stereo not drawn) [Example 97, 3,4-Dichloro-2-(3-(1-methyl-1H-pyrazol-4-yl)-6,7-dihydro-5H-pyrrolo[1,2-a]imidazol-6-yl)phenol] | 7.93
17 | CC(C)(C)n1cc(-c2cnc3n2CC(c2c(O)ccc(Cl)c2Cl)C3)cn1 (stereo not drawn) [Example 98, 2-(3-(1-(tert-Butyl)-1H-pyrazol-4-yl)-6,7-dihydro-5H-pyrrolo[1,2-a]imidazol-6-yl)-3,4-dichlorophenol] | 7.59

Row | Compound | pIC50
18 | CC(C)N1CCN(c2cnc3n2CC(c2c(O)ccc(Cl)c2Cl)C3)CC1 (stereo not drawn) [Example 100, 3,4-Dichloro-2-(3-(4-isopropylpiperazin-1-yl)-6,7-dihydro-5H-pyrrolo[1,2-a]imidazol-6-yl)phenol] | 8.00
19 | Oc1ccc(Cl)c(Cl)c1C1Cc2nnc(N3CCOCC3)n2C1 (stereo not drawn) [Example 101, 3,4-Dichloro-2-(3-morpholino-6,7-dihydro-5H-pyrrolo[2,1-c][1,2,4]triazol-6-yl)phenol] | 8.01
20 | CC(C)N1CCC(Oc2nnc3n2CC(c2c(O)ccc(Cl)c2Cl)C3)CC1 (stereo not drawn) [Example 102, 3,4-dichloro-2-(3-((1-isopropylpiperidin-4-yl)oxy)-6,7-dihydro-5H-pyrrolo[2,1-c][1,2,4]triazol-6-yl)phenol] | 8.16
21 | CC(C)N1CCC(n2nc3n(c2=O)C[C@H](c2c(O)ccc(Cl)c2Cl)C3)CC1 [Example 103, (S)-6-(2,3-dichloro-6-hydroxyphenyl)-2-(1-isopropylpiperidin-4-yl)-2,5,6,7-tetrahydro-3H-pyrrolo[2,1-c][1,2,4]triazol-3-one] | 8.11
22 | CC(C)N1CCC(n2nc3n(c2=O)C[C@@H](c2c(O)ccc(Cl)c2Cl)C3)CC1 [Example 104, (R)-6-(2,3-dichloro-6-hydroxyphenyl)-2-(1-isopropylpiperidin-4-yl)-2,5,6,7-tetrahydro-3H-pyrrolo[2,1-c][1,2,4]triazol-3-one] | 8.16
23 | O=c1n(C2CCNCC2)nc2n1CC(c1c(O)ccc(Cl)c1Cl)C2 (stereo not drawn) [Example 105, 6-(2,3-Dichloro-6-hydroxyphenyl)-2-(piperidin-4-yl)-2,5,6,7-tetrahydro-3H-pyrrolo[2,1-c][1,2,4]triazol-3-one] | 8.23
24 | CCn1nc2n(c1=O)C[C@H](c1c(O)ccc(Cl)c1Cl)C2 [Example 106, (S)-6-(2,3-Dichloro-6-hydroxyphenyl)-2-ethyl-2,5,6,7-tetrahydro-3H-pyrrolo[2,1-c][1,2,4]triazol-3-one] | 7.53
25 | O=c1n(CC(F)F)nc2n1C[C@H](c1c(O)ccc(Cl)c1Cl)C2 [Example 107, (S)-6-(2,3-Dichloro-6-hydroxyphenyl)-2-(2,2-difluoroethyl)-2,5,6,7-tetrahydro-3H-pyrrolo[2,1-c][1,2,4]triazol-3-one] | 7.51
26 | O=c1n(C2CCOCC2)nc2n1C[C@H](c1c(O)ccc(Cl)c1Cl)C2 [Example 108, (S)-6-(2,3-Dichloro-6-hydroxyphenyl)-2-(tetrahydro-2H-pyran-4-yl)-2,5,6,7-tetrahydro-3H-pyrrolo[2,1-c][1,2,4]triazol-3-one] | 7.56
27 | O=c1n([C@H]2CCOC2)nc2n1C[C@H](c1c(O)ccc(Cl)c1Cl)C2 [Example 109, (S)-6-(2,3-Dichloro-6-hydroxyphenyl)-2-((S)-tetrahydrofuran-3-yl)-2,5,6,7-tetrahydro-3H-pyrrolo[2,1-c][1,2,4]triazol-3-one] | 7.50
28 | O=c1n([C@@H]2CCOC2)nc2n1C[C@H](c1c(O)ccc(Cl)c1Cl)C2 [Example 110, (S)-6-(2,3-dichloro-6-hydroxyphenyl)-2-((R)-tetrahydrofuran-3-yl)-2,5,6,7-tetrahydro-3H-pyrrolo[2,1-c][1,2,4]triazol-3-one] | 7.70
29 | Oc1ccc(Cl)c(Cl)c1[C@@H]1Cc2nnc(-c3ccnc(C(F)(F)F)c3)n2C1 [Example 111, (S)-3,4-Dichloro-2-(3-(2-(trifluoromethyl)pyridin-4-yl)-6,7-dihydro-5H-pyrrolo[2,1-c][1,2,4]triazol-6-yl)phenol] | 7.84
30 | CCn1cc2c(n1)CC(c1c(O)ccc(Cl)c1Cl)C2 (stereo not drawn) [Example 112, 3,4-Dichloro-2-(2-ethyl-2,4,5,6-tetrahydrocyclopenta[c]pyrazol-5-yl)phenol] | 7.37
31 | CCc1c2c(nn1C)CC(c1c(O)ccc(Cl)c1Cl)C2 (stereo not drawn) [Example 113, 3,4-Dichloro-2-(3-ethyl-2-methyl-2,4,5,6-tetrahydrocyclopenta[c]pyrazol-5-yl)phenol] | 7.24
32 | CCc1nn(C)c2c1C[C@H](c1c(O)ccc(Cl)c1Cl)C2 [Example 115, (S)-3,4-Dichloro-2-(3-ethyl-1-methyl-1,4,5,6-tetrahydrocyclopenta[c]pyrazol-5-yl)phenol] | 7.23
33 | CCc1nn(C)c2c1C[C@@H](c1c(O)ccc(Cl)c1Cl)C2 [Example 116, (R)-3,4-dichloro-2-(3-ethyl-1-methyl-1,4,5,6-tetrahydrocyclopenta[c]pyrazol-5-yl)phenol] | 7.36
